This note sets out measurements from publication PMC6309603 (Molecular diversity, 2018).

Read-outs that look alike come from different tables or passages of the source.

What is called IC50 is the point on the concentration scale where inhibition reaches its midpoint.

The target in one test is BChE (Homo sapiens, UniProt P06276). Put plainly: biochemical.
The target in the next test is AChE (Homo sapiens, UniProt P22303). As to the kind of experiment: biochemical. Conditions: for Selectivity for AChE: IC50 (BChE)/IC50 (AChE).
AChE, sequence (P22303 32-614): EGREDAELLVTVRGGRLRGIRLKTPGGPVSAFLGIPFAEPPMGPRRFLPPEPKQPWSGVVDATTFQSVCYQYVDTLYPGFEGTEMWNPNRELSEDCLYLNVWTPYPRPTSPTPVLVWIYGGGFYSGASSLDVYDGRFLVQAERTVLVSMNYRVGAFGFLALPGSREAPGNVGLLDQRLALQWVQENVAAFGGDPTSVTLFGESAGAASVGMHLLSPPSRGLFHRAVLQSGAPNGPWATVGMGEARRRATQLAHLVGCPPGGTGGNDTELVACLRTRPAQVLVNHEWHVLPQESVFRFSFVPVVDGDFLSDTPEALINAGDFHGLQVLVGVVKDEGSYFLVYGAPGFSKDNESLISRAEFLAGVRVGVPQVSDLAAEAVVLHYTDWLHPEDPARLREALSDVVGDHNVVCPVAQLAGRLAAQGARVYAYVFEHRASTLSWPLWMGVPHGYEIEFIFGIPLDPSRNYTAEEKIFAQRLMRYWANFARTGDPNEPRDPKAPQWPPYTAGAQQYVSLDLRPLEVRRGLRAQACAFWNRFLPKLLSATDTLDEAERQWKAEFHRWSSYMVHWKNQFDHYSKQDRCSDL

BChE, sequence (P06276 29-602): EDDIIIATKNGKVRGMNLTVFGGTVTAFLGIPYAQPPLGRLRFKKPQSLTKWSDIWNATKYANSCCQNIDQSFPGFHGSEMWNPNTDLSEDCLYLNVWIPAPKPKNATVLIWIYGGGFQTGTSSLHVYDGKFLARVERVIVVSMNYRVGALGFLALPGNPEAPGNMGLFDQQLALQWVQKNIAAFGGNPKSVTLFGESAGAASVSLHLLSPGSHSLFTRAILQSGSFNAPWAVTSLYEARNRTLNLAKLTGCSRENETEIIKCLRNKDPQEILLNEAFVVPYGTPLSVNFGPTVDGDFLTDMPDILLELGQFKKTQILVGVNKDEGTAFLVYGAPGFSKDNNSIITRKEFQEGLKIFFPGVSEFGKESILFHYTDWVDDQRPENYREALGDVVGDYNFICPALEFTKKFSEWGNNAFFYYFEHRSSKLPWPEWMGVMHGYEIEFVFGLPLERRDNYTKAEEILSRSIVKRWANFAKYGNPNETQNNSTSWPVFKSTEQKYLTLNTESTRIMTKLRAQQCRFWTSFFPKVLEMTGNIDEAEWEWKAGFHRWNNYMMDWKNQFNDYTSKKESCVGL

Take `CN(C)CCOc1ccc(/C=C/C(=O)c2cc3ccccc3oc2=O)cc1` [Compound 5d, (E)-3-(3-(4-(2-(dimethylamino)ethoxy)phenyl)acryloyl)-2H-chromen-2-one]: the IC50 was over 500 µM at BChE and 0.37 ± 0.03 µM on AChE.
As to `O=C(/C=C/c1ccc(OCCN2CCCCC2)cc1)c1cc2ccccc2oc1=O` [Compound 5f, (E)-3-(3-(4-(2-(piperidin-1-yl)ethoxy)phenyl)acryloyl)-2H-chromen-2-one], the IC50 came out at 1.03 ± 0.05 µM against BChE and 0.69 ± 0.06 µM at AChE. Besides, the “Selectivity for AChE” value on AChE is recorded as 1.49.
At BChE, `CCN(CC)CCOc1ccc(/C=C/C(=O)c2cc3ccccc3oc2=O)cc1` [Compound 5g, (E)-3-(3-(4-(2-(diethylamino)ethoxy)phenyl)acryloyl)-2H-chromen-2-one] came in with an IC50 of 6.21 ± 0.19 µM. Moreover, at AChE, 4.34 ± 0.29 µM corresponded to half-maximal inhibition (IC50) and the “Selectivity for AChE” value was 1.43.
Take `O=C(/C=C/c1ccc(OCCN2CCOCC2)cc1)c1cc2ccccc2oc1=O` [Compound 5h, (E)-3-(3-(4-(2-morpholinoethoxy)phenyl)acryloyl)-2H-chromen-2-one]: the IC50 against BChE was over 500 µM; at BChE (read-out: IC50 BChE, means±SD of three assays, 30 min, 30 °C, pH 8.0), over 500 µM; against AChE, over 500 µM; at AChE (read-out: IC50 AChE, means±SD of three assays, 30 min, 30 °C, pH 8.0) it was over 500 µM. The “inhibitory activity against BChE (in words)” value against BChE was “almost has no inhibitory activity”. Also, the “inhibitory activity against AChE (in words)” value at AChE is on record as “almost has no inhibitory activity”.
On to `CC(C)CCOc1ccc(/C=C/C(=O)c2cc3ccccc3oc2=O)cc1` [Compound 5i, (E)-3-(3-(4-(isopentyloxy)phenyl)acryloyl)-2H-chromen-2-one], for which the IC50 on BChE and against AChE was over 500 µM in each case.
As for `CC(C)=CCOc1ccc(/C=C/C(=O)c2cc3ccccc3oc2=O)cc1` [Compound 5j, (E)-3-(3-(4-(3-methylbut-2-enyloxy)phenyl)-prop-2-enoyl)-2H-chromen-2-one], the IC50 against BChE and on AChE was over 500 µM in each case.
At BChE, `CN(C)CCOc1cccc(/C=C/C(=O)c2cc3ccccc3oc2=O)c1` [Compound 6d, (E)-3-(3-(3-(2-(dimethylamino)ethoxy)phenyl)acryloyl)-2H-chromen-2-one] displayed an IC50 of 15.3 ± 1.16 µM. Moreover, on AChE, the IC50 worked out at 0.92 ± 0.07 µM and the “Selectivity for AChE” value is reported as 16.64.
In turn, `O=C(/C=C/c1cccc(OCCN2CCCC2)c1)c1cc2ccccc2oc1=O` [Compound 6e, (E)-3-(3-(3-(2-(pyrrolidin-1-yl)ethoxy)phenyl)acryloyl)-2H-chromen-2-one] registered an IC50 at BChE of 4.62 ± 0.16 µM. Also, on AChE, inhibition was half-maximal at 3.25 ± 0.14 µM (IC50), the “inhibitory activity against AChE (in words)” value is listed as “moderate inhibitory activity”, the “selectivity over BChE (in words)” value is listed as “low selectivity” and the “Selectivity for AChE” value turned out to be 1.42.
`O=C(/C=C/c1cccc(OCCN2CCCCC2)c1)c1cc2ccccc2oc1=O` [Compound 6f, (E)-3-(3-(3-(2-(piperidin-1-yl)ethoxy)phenyl)acryloyl)-2H-chromen-2-one] yielded an IC50 on BChE of 4.01 ± 0.14 µM. In addition, on AChE, the IC50 amounted to 0.61 ± 0.02 µM and the “Selectivity for AChE” value was determined as 6.61.
For `CCN(CC)CCOc1cccc(/C=C/C(=O)c2cc3ccccc3oc2=O)c1` [Compound 6g, (E)-3-(3-(3-(2-(diethylamino)ethoxy)phenyl)acryloyl)-2H-chromen-2-one], in that order: 1.12 ± 0.11 µM, 51.3 ± 1.04 µM and 0.02.
`O=C(/C=C/c1cccc(OCCN2CCOCC2)c1)c1cc2ccccc2oc1=O` [Compound 6h, (E)-3-(3-(3-(2-morpholinoethoxy)phenyl)acryloyl)-2H-chromen-2-one]: the half-maximal inhibitory concentration (IC50) against BChE and at AChE was over 500 µM each time.
As for `CC(C)CCOc1cccc(/C=C/C(=O)c2cc3ccccc3oc2=O)c1` [Compound 6i, (E)-3-(3-(3-(isopentyloxy)phenyl)acryloyl)-2H-chromen-2-one], the IC50 against BChE and on AChE was over 500 µM in each case.
Regarding `CC(C)=CCOc1cccc(/C=C/C(=O)c2cc3ccccc3oc2=O)c1` [Compound 6j, (E)-3-(3-(3-(3-methylbut-2-enyloxy)phenyl)-prop-2-enoyl)-2H-chromen-2-one], the concentration for half-maximal inhibition (IC50) on BChE and against AChE was over 500 µM throughout.
On to `CN(C)CCOc1ccccc1/C=C/C(=O)c1cc2ccccc2oc1=O` [Compound 7d, (E)-3-(3-(2-(2-(dimethylamino)ethoxy)phenyl)acryloyl)-2H-chromen-2-one], for which the IC50 turned out to be 15.2 ± 0.6 µM on BChE and 16.4 ± 0.22 µM at AChE. In addition, the “Selectivity for AChE” value on AChE stood at 0.92.
At BChE, `O=C(/C=C/c1ccccc1OCCN1CCCC1)c1cc2ccccc2oc1=O` [Compound 7e, (E)-3-(3-(2-(2-(pyrrolidin-1-yl)ethoxy)phenyl)acryloyl)-2H-chromen-2-one] displayed an IC50 of 3.76 ± 0.35 µM. Besides, on AChE, half-maximal inhibition (IC50) required 230 ± 14.8 µM, the “inhibitory activity against AChE (in words)” value is reported as “poor inhibitory activity”, the “selectivity over BChE (in words)” value is on record as “poor selectivity” and the “Selectivity for AChE” value is 0.02.
`O=C(/C=C/c1ccccc1OCCN1CCCCC1)c1cc2ccccc2oc1=O` [Compound 7f, (E)-3-(3-(2-(2-(piperidin-1-yl)ethoxy)phenyl)acryloyl)-2H-chromen-2-one] gave an IC50 at BChE of 4.5 ± 0.22 µM. For the same molecule, on AChE, the IC50 worked out at 29.9 ± 0.98 µM and the “Selectivity for AChE” value is 0.15.
For `O=C(/C=C/c1ccccc1OCCN1CCOCC1)c1cc2ccccc2oc1=O` [Compound 7h, (E)-3-(3-(2-(2-morpholinoethoxy)phenyl)acryloyl)-2H-chromen-2-one], in that order: 29 ± 1.23 µM, 261 ± 4.17 µM and 0.11.
As for `CC(C)CCOc1ccccc1/C=C/C(=O)c1cc2ccccc2oc1=O` [Compound 7i, (E)-3-(3-(2-(isopentyloxy)phenyl)acryloyl)-2H-chromen-2-one], the IC50 against BChE and at AChE was over 500 µM throughout.
On BChE, `CC(C)=CCOc1ccccc1/C=C/C(=O)c1cc2ccccc2oc1=O` [Compound 7j, (E)-3-(3-(2-(3-methylbut-2-enyloxy)phenyl)-prop-2-enoyl)-2H-chromen-2-one] displayed an IC50 of 100 ± 6.84 µM. At AChE, the concentration for half-maximal inhibition (IC50) is over 500 µM and the “Selectivity for AChE” value is under 0.20.
As for `CN(C)C(=O)COc1ccc(/C=C/C(=O)c2cc3ccccc3oc2=O)cc1` [Compound 9d, (E)-N,N-dimethyl-2-(4-(3-oxo-3-(2-oxo-2H-chromen-3-yl)prop-1-en-1-yl)phenoxy)acetamide], the IC50 at BChE was over 500 µM. Moreover, on AChE, it took 18.6 ± 1.06 µM to reach half-maximal inhibition (IC50) and the “Selectivity for AChE” value was over 26.86.
Take `O=C(/C=C/c1ccc(OCC(=O)N2CCCC2)cc1)c1cc2ccccc2oc1=O` [Compound 9e, (E)-3-(3-(4-(2-oxo-2-(pyrrolidin-1-yl)ethoxy)phenyl)acryloyl)-2H-chromen-2-one]: the IC50 against BChE and against AChE was over 500 µM in each case.
As for `O=C(/C=C/c1ccc(OCC(=O)N2CCCCC2)cc1)c1cc2ccccc2oc1=O` [Compound 9f, (E)-3-(3-(4-(2-oxo-2-(piperidin-1-yl)ethoxy)phenyl)acryloyl)-2H-chromen-2-one], the IC50 against BChE and against AChE was over 500 µM each time.
